Measured values taken from PubChem BioAssay AID1788 (Vanderbilt High Throughput Screening Facility, 2009).
Activity calls are given as the source filed them. The rule behind the calls is not given here.

Legend:
PubChem AID 1788 = conditions: MDS Pharma lead profiling panel, radioligand binding; GABAA central (rat), Muscimol site; at 10 µM; stronger effect = higher value
[1] = test system: Calcium channel N-type (rat); assay: PubChem AID 1788; conditions: MDS Pharma lead profiling panel, radioligand binding, at 10 µM, stronger effect = higher value
Thyroid Hormone (rat) = assay: PubChem AID 1788; conditions: MDS Pharma lead profiling panel, radioligand binding, at 10 µM, stronger effect = higher value
[2] = biological target: Potassium Channel K ATP (hamster) (UniProt P49658); assay: PubChem AID 1788; conditions: MDS Pharma lead profiling panel, radioligand binding, at 10 µM, stronger effect = higher value
Potassium Channel K ATP (hamster), sequence (P49658 whole entry, looked up): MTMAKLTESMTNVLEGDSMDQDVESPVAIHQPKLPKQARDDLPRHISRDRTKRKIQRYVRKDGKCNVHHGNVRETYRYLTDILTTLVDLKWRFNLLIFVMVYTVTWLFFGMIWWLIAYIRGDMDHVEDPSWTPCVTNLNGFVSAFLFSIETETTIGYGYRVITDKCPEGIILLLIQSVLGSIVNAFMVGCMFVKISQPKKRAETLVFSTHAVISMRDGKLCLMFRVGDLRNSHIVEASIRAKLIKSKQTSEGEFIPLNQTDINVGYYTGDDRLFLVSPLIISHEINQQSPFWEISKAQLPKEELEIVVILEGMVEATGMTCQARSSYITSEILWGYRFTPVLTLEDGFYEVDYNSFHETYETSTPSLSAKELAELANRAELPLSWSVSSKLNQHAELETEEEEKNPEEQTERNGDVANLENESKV

[3] = test system: Imidazoline I2 central (rat); assay: PubChem AID 1788; conditions: MDS Pharma lead profiling panel, radioligand binding, at 10 µM, stronger effect = higher value
Bradykinin B2 (human) = assay: PubChem AID 1788; conditions: MDS Pharma lead profiling panel, radioligand binding, at 10 µM, stronger effect = higher value
Sigma s1 (human) = assay: PubChem AID 1788; conditions: MDS Pharma lead profiling panel, radioligand binding, at 10 µM, stronger effect = higher value
[4] = test system: Sodium Channel, Site 2 (rat); assay: PubChem AID 1788; conditions: MDS Pharma lead profiling panel, radioligand binding, at 10 µM, stronger effect = higher value
[5] = test system: G protein-coupled receptor GPR103 (human); assay: PubChem AID 1788; conditions: MDS Pharma lead profiling panel, radioligand binding, at 10 µM, stronger effect = higher value
Histamine H3 (human) = assay: PubChem AID 1788; conditions: MDS Pharma lead profiling panel, radioligand binding, at 10 µM, stronger effect = higher value
Melatonin MT1 (human) = assay: PubChem AID 1788; conditions: MDS Pharma lead profiling panel, radioligand binding, at 10 µM, stronger effect = higher value
[6] = biological target: Estrogen receptor (Homo sapiens) (UniProt P03372); assay: PubChem AID 1788; conditions: MDS Pharma lead profiling panel, radioligand binding; Estrogen ER a (human); at 10 µM; stronger effect = higher value
Estrogen receptor (Homo sapiens), sequence (P03372 whole entry, looked up): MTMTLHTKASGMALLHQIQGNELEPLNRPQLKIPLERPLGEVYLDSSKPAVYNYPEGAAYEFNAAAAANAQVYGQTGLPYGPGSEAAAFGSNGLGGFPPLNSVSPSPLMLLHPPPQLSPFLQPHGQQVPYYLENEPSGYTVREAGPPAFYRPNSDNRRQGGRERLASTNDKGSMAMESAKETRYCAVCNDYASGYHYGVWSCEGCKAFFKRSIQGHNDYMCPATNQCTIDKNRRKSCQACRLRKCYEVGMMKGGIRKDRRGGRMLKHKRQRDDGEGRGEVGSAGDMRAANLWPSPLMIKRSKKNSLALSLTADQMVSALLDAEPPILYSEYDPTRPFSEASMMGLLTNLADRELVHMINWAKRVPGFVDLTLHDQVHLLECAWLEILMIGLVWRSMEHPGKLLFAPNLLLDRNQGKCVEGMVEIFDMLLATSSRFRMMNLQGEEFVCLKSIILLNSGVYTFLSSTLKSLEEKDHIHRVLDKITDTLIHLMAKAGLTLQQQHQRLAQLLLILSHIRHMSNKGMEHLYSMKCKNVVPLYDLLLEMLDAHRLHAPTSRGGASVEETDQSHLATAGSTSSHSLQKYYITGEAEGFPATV

[7] = biological target: Neuropeptide Y receptor type 2 (Homo sapiens) (UniProt P49146); assay: PubChem AID 1788; conditions: MDS Pharma lead profiling panel, radioligand binding; Neuropeptide Y Y2 (human); at 10 µM; stronger effect = higher value
Neuropeptide Y receptor type 2 (Homo sapiens), sequence (P49146 whole entry, looked up): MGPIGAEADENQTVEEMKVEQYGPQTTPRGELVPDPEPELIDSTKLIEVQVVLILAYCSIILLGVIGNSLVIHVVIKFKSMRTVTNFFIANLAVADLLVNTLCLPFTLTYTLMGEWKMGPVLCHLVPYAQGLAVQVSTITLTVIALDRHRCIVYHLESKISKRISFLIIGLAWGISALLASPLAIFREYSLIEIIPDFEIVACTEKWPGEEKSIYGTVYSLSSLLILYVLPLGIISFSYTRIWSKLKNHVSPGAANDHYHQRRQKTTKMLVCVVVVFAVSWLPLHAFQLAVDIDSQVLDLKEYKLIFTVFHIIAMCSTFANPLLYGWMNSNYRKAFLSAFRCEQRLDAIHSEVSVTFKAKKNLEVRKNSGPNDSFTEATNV

[8] = biological target: Mu-type opioid receptor (Homo sapiens) (UniProt P35372); assay: PubChem AID 1788; conditions: MDS Pharma lead profiling panel, radioligand binding; Opiate m (OP3, MOP) (human); at 10 µM; stronger effect = higher value
Mu-type opioid receptor (Homo sapiens), sequence (P35372 whole entry, looked up): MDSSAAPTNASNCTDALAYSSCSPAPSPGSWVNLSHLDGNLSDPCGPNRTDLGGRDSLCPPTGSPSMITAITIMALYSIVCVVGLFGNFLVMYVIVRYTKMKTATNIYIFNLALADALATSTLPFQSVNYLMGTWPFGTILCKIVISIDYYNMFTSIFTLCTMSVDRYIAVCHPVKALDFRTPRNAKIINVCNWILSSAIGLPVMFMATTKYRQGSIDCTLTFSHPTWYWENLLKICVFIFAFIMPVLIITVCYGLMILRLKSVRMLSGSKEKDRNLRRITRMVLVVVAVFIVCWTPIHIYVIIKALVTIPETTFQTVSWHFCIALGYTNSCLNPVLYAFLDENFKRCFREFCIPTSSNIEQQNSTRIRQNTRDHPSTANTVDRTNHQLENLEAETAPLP

Endothelin ETA (human) = assay: PubChem AID 1788; conditions: MDS Pharma lead profiling panel, radioligand binding, at 10 µM, stronger effect = higher value
Adrenergic a1B (rat) = assay: PubChem AID 1788; conditions: MDS Pharma lead profiling panel, radioligand binding, at 10 µM, stronger effect = higher value
Transporter, GABA (rat) = assay: PubChem AID 1788; conditions: MDS Pharma lead profiling panel, radioligand binding, at 10 µM, stronger effect = higher value
Prostanoid EP4 (human) = assay: PubChem AID 1788; conditions: MDS Pharma lead profiling panel, radioligand binding, at 10 µM, stronger effect = higher value
Histamine H1 (human) = assay: PubChem AID 1788; conditions: MDS Pharma lead profiling panel, radioligand binding, at 10 µM, stronger effect = higher value
Adenosine A2 (human) = assay: PubChem AID 1788; conditions: MDS Pharma lead profiling panel, radioligand binding, at 10 µM, stronger effect = higher value
Sigma s2 (rat) = assay: PubChem AID 1788; conditions: MDS Pharma lead profiling panel, radioligand binding, at 10 µM, stronger effect = higher value
[9] = biological target: D(3) dopamine receptor (Homo sapiens) (UniProt P35462); assay: PubChem AID 1788; conditions: MDS Pharma lead profiling panel, radioligand binding; Dopamine D3 (human); at 10 µM; stronger effect = higher value
D(3) dopamine receptor (Homo sapiens), sequence (P35462 whole entry, looked up): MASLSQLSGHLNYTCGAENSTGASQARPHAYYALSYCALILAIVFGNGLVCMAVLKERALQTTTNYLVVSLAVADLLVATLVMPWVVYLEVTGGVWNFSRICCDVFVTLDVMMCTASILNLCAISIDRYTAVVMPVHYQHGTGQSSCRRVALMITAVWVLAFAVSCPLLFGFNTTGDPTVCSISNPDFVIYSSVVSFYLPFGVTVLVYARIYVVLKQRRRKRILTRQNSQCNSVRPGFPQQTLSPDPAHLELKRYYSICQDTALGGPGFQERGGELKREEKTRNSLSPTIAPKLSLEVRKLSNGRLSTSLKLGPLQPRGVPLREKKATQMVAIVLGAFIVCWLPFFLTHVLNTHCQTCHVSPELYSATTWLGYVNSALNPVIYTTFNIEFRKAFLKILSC

Interleukin IL-1 (mouse) = assay: PubChem AID 1788; conditions: MDS Pharma lead profiling panel, radioligand binding, at 10 µM, stronger effect = higher value
[10] = biological target: Muscarinic acetylcholine receptor M2 (Homo sapiens) (UniProt P08172); assay: PubChem AID 1788; conditions: MDS Pharma lead profiling panel, radioligand binding, at 10 µM, stronger effect = higher value
Muscarinic acetylcholine receptor M2 (Homo sapiens), sequence (P08172 whole entry, looked up): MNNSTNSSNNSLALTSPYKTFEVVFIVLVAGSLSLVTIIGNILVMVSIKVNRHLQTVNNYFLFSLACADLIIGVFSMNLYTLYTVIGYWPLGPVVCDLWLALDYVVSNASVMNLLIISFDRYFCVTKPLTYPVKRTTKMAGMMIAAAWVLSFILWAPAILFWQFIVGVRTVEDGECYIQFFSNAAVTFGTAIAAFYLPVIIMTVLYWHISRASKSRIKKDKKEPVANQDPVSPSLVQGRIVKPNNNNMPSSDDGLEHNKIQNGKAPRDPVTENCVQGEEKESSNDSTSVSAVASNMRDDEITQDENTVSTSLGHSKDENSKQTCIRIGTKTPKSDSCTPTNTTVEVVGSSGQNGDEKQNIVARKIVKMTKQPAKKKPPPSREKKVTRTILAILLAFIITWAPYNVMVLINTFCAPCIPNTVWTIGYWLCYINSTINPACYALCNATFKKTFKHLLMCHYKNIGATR

[11] = biological target: Muscarinic acetylcholine receptor M1 (Homo sapiens) (UniProt P11229); assay: PubChem AID 1788; conditions: MDS Pharma lead profiling panel, radioligand binding, at 10 µM, stronger effect = higher value
Muscarinic acetylcholine receptor M1 (Homo sapiens), sequence (P11229 whole entry, looked up): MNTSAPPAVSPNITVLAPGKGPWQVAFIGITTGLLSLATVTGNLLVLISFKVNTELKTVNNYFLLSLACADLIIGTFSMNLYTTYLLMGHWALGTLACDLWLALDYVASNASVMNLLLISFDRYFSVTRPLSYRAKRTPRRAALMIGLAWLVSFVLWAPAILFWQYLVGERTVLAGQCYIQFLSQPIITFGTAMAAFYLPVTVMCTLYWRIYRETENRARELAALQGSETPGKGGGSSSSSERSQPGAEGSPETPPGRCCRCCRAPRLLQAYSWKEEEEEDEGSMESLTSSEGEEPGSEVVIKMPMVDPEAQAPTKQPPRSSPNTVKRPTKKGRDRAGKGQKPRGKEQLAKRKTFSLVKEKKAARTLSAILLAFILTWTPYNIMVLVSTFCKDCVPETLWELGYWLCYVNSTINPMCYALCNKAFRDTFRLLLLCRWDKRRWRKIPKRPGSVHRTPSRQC

[12] = test system: Nicotinic Acetylcholine (human); assay: PubChem AID 1788; conditions: MDS Pharma lead profiling panel, radioligand binding, at 10 µM, stronger effect = higher value
[13] = biological target: 5-hydroxytryptamine receptor 1A (Homo sapiens) (UniProt P08908); assay: PubChem AID 1788; conditions: MDS Pharma lead profiling panel, radioligand binding; Serotonin (5-Hydroxytryptamine) 5-HT1A (human); at 10 µM; stronger effect = higher value
5-hydroxytryptamine receptor 1A (Homo sapiens), sequence (P08908 whole entry, looked up): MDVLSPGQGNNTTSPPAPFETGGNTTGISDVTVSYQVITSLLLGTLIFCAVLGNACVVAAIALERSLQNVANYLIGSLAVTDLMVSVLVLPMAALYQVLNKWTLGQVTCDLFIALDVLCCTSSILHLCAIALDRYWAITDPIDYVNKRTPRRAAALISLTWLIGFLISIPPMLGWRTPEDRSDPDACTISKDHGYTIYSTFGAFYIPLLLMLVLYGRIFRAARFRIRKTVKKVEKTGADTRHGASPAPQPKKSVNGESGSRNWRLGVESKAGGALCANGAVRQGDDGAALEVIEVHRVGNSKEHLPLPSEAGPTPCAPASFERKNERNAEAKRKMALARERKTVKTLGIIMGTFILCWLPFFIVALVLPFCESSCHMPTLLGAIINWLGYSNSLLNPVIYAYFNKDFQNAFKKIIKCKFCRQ

Adrenergic b1 (human) = assay: PubChem AID 1788; conditions: MDS Pharma lead profiling panel, radioligand binding, at 10 µM, stronger effect = higher value
[14] = biological target: Kappa-type opioid receptor (Homo sapiens) (UniProt P41145); assay: PubChem AID 1788; conditions: MDS Pharma lead profiling panel, radioligand binding; Opiate k (OP2, KOP) (human); at 10 µM; stronger effect = higher value
Kappa-type opioid receptor (Homo sapiens), sequence (P41145 whole entry, looked up): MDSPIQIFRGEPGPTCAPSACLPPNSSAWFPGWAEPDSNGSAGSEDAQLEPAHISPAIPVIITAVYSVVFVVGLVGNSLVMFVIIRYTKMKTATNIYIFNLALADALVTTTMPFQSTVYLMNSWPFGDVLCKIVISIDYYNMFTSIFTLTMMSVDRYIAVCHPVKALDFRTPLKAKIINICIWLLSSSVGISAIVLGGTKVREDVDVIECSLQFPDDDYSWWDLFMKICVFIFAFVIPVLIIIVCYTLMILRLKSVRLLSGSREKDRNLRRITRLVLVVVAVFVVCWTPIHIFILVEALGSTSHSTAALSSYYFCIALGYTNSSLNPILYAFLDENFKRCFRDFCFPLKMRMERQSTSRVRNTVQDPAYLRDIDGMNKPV

[15] = biological target: D(1A) dopamine receptor (Homo sapiens) (UniProt P21728); assay: PubChem AID 1788; conditions: MDS Pharma lead profiling panel, radioligand binding; Dopamine D1 (human); at 10 µM; stronger effect = higher value
D(1A) dopamine receptor (Homo sapiens), sequence (P21728 whole entry, looked up): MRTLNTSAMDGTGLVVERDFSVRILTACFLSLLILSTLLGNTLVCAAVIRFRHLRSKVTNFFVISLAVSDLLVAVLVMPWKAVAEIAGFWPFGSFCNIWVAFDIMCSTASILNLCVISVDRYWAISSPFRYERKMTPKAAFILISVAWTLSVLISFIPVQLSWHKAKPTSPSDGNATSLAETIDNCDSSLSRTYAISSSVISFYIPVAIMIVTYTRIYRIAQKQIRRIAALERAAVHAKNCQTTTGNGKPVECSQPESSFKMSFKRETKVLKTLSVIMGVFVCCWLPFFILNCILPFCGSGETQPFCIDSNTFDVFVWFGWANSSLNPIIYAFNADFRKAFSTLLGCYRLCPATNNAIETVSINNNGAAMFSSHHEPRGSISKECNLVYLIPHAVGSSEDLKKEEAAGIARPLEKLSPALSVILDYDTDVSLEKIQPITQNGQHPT

[16] = test system: Leukotriene Cysteinyl CysLT1 (human); assay: PubChem AID 1788; conditions: MDS Pharma lead profiling panel, radioligand binding, at 10 µM, stronger effect = higher value
[17] = test system: Serotonin (5-Hydroxytryptamine) 5-HT3 (human); assay: PubChem AID 1788; conditions: MDS Pharma lead profiling panel, radioligand binding, at 10 µM, stronger effect = higher value
Tachykinin NK1 (human) = assay: PubChem AID 1788; conditions: MDS Pharma lead profiling panel, radioligand binding, at 10 µM, stronger effect = higher value

Measured: inhibition

CCOC(=O)N1CCC(NCCNC(=O)c2ccccc2C)CC1
inactive: PubChem AID 1788 7% | [1] 8% | Thyroid Hormone (rat) -8% | [2] -9% | [3] 19% | Bradykinin B2 (human) 9% | Sigma s1 (human) 69% | [4] -7% | [5] 9% | Histamine H3 (human) 11% | Melatonin MT1 (human) 25% | [6] 5% | [7] 12% | [8] -4% | Endothelin ETA (human) 8% | Adrenergic a1B (rat) 20% | Transporter, GABA (rat) 3% | Prostanoid EP4 (human) 3% | Histamine H1 (human) -4% | Adenosine A2 (human) 7% | Sigma s2 (rat) 44% | [9] 48% | Interleukin IL-1 (mouse) -1% | [10] 1% | [11] 19% | [12] 2% | [13] 25% | Adrenergic b1 (human) 4% | [14] -2% | [15] 5% | [16] 5% | [17] 2% | Tachykinin NK1 (human) -8%
